In one data set the test system is Human coronavirus 229E. In words: Antiviral activity against Human coronavirus 229E infected in human MRC5 cells assessed as reduction in virus-induced cytopathic effect incubated for 3 days by Celltiter-Glo assay. Particulars: MRC5, 72 h. Format: functional, organism-based.
A short description of data set [1]: in vitro. Particulars: human, Huh-7 cells.
Data set [2] is described as follows: Antiviral activity against Human coronavirus OC43 infected in human Huh-7 cells assessed as reduction in virus-induced cytopathic effect incubated for 7 days by Celltiter-Glo assay. Particulars: Betacoronavirus 1, OC43, Huh-7, 168 h. Format: functional, cell-based. A general note: Cytopathic effects are the visible damage that an infection or toxin causes in cultured cells.

Data set [3] can be described thus: Cytotoxicity against human Huh-7 cells assessed as reduction in cell viability incubated for 24 hrs by Celltiter-glo luminescent cell viability assay. Format: toxicity, cell-based. Background: In ATP-based viability assays light output follows the ATP content of the culture.
Data set [4] in a line: Cytotoxicity against human MRC5 cells assessed as reduction in cell viability incubated for 24 hrs by Celltiter-glo luminescent cell viability assay. In kind it is toxicity, cell-based.
A short description of data set [5]: Metabolic stability in CD-1 mouse Hepatocytes assessed as half life at 3 uM measured upto 90 mins by LC-MS/MS analysis. Format: ADME, cell-based, Hepatocyte. Particulars: CD-1, mouse.
Data set [6] can be described thus: in vitro. Particulars: chlorocebus sabaeus, Vero E6 cells.
A short description of data set [7]: Selectivity index, ratio of CC50 for cytotoxicity against human A549 cells assessed as reduction in cell viability to EC50 for antiviral activity against SARS-CoV-2 3CL protease. Format: toxicity, cell-based. Particulars: read-out: Ratio CC50/EC50.
The next data set concerns the target Cathepsin B (Homo sapiens, UniProt P07858). Description: Inhibition of human cathepsin B at 1 uM incubated for 30 mins by fluorometric analysis.
Data set [8] is described as follows: Stability in CD-1 mouse plasma assessed as half life at 2 uM measured upto 120 mins by LC-MS/MS analysis. Format: ADME, cell-free.
Data set [9] is described as follows: Apparent permeability from basolateral to apical side in human Caco-2 cells at 2 uM with pH 7.4 incubated for 2 hrs by LC-MS analysis. Format: ADME, cell-based. Particulars: Caco-2, pH 7.4.
Data set [10] is described as follows: Efflux ratio of apparent permeability across basal to apical membrane over apical to basal membrane in human Caco-2 cells at 2 uM with pH 7.4 incubated for 2 hrs by LC-MS analysis. In kind it is ADME, cell-based. Particulars: caco-2, pH 7.4, 2 h. (In general: Passage across Caco-2 layers is used to estimate intestinal permeability.)
Data set [11] can be described thus: Lipophilicity, log D of the compound at phosphate buffer pH 7.4 by shake flask method based LC-MS/MS analysis. In kind it is physicochemical.
Data set [12] is described as follows: Metabolic stability in human plasma measured at 2 hrs by LC-MS analysis. In kind it is ADME, cell-free. Particulars: read-out: Stability.
A short description of data set [13]: Microsomal stability in CD-1 mouse liver microsomes assessed as half life at 1 uM measured upto 60 mins in presence of NADPH by LC-MS/MS analysis. Format: ADME, Microsome. Particulars: CD-1, mouse, liver microsomes.
A further data set has as its target Cathepsin S (Homo sapiens, UniProt P25774). Description: Inhibition of human cathepsin S at 1 uM incubated for 30 mins by fluorometric analysis.
Data set [14] can be described thus: in vitro. Particulars: human, A549 cells.
Data set [15] is described as follows: Dissociation constant, pKa of the compound. Format: physicochemical.
A further data set has as its system SARS-CoV-2. In words: microbe, parasite or virus in culture. Particulars: Severe acute respiratory syndrome coronavirus 2, Vero C1008, 48 h.
The nature of data set [16]: Selectivity index, ratio of CC50 for cytotoxicity against African green monkey VeroE6 cells assessed as reduction in cell viability to EC50 for antiviral activity against SARS-CoV-2 3CL protease. Format: toxicity, cell-based. Particulars: read-out: Ratio.
Data set [17] in a line: Stability of compound in glutathione at pH 7.4 after 24 hrs by LC-MS analysis. Particulars: read-out: Stability. Format: physicochemical.

Molecules are shown by their SMILES. Where only a bound is given, the exact number is not on record here.

Consider two molecules from ChEMBL document CHEMBL5154637, “Peptidomimetic α-Acyloxymethylketone Warheads with Six-Membered Lactam P1 Glutamine Mimic: SARS-CoV-2 3CL Protease Inhibition, Coronavirus Antiviral Activity, and in Vitro Biological Stability” (J Med Chem, 2022).

Sequence of Cathepsin S (P25774 115-331 limits assumed): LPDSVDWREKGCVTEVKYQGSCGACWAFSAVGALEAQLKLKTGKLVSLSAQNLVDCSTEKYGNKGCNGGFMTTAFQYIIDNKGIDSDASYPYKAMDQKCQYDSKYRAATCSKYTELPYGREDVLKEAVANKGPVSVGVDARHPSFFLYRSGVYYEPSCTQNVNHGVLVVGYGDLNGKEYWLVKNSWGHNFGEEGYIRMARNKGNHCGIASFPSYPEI

By EC50 is commonly meant the concentration at which the effect is half-maximal. As a reminder, the CC50 is the concentration giving 50% cytotoxicity. Take `CCC(CC)COC(=O)[C@H](C)N[P@](=O)(OC[C@H]1O[C@@](C#N)(c2ccc3c(N)ncnn23)[C@H](O)[C@@H]1O)Oc1ccccc1`: the EC50 turned out to be 0.035 µM with Human coronavirus 229E and 0.02 µM in data set [2]. In addition, the selectivity ratio in “in vitro [1]” is 518. Further, the CC50 at 24 h is 10.4 µM in data set [3] and over 100 µM in data set [4].

By half-life is commonly meant the time needed for the level to fall by half in the phase considered. A word on the inhibition: it is the change of the read-out against control, counted positive when it falls. Usually Papp B→A stands for how fast a substance crosses the layer from the basolateral side. As a reminder, the logD is the decadic logarithm of the distribution of all forms, ionised or not, between an organic phase and buffer at a given pH. For orientation: pKa means the pH at which an ionisable group is half protonated. On to `COc1cccc2[nH]c(C(=O)N[C@@H](CC(C)C)C(=O)N[C@@H](C[C@@H]3CCCNC3=O)C(=O)COC(=O)c3c(C(F)(F)F)cc(C)nc3C)cc12`, for which the values for the EC50 (with Human coronavirus 229E; in [2]; in the data set with SARS-CoV-2) were 0.03 µM, 0.045 µM and 0.47 µM, respectively. For the same molecule, the half-life at 3 µM in data set [5] worked out at 1.9 min. Besides, the half-maximal cytotoxic concentration (CC50) at 24 h in “in vitro [6]” is over 200 µM; in [3], 67.6 µM; in the data set “in vitro [14]”, over 200 µM; in data set [4], over 100 µM. In addition, the selectivity ratio in data set [7] and in data set [16] was over 426 in each case. Moreover, the inhibition at Cathepsin B was 95%; against Cathepsin S it was 98.4%. Besides, the half-life at 2 µM in [8] is over 289 min. For the same molecule, the Papp B→A at 2 h, 2 µM in data set [9] was 28.9 ×10⁻⁶ cm/s. For the same molecule, the Ratio in data set [10] is 1146. Moreover, in [11], the logD worked out at 4.11. Besides, the remaining at 2 h in data set [12] came out at 99%. Moreover, the half-life at 1 µM in [13] is 1 min. For the same molecule, the pKa in data set [15] came out at 1.7. Further, the remaining at 24 h in [17] is over 80%.
